This passage reports IC50 results from US10227358B2, “Hydroxyester derivatives, a process for their preparation and pharmaceutical compositions containing them” (LES LABORATOIRES SERVIER, priority 2015, dated 2019).

Sequence of Mcl-1 protein (Q07820 whole entry): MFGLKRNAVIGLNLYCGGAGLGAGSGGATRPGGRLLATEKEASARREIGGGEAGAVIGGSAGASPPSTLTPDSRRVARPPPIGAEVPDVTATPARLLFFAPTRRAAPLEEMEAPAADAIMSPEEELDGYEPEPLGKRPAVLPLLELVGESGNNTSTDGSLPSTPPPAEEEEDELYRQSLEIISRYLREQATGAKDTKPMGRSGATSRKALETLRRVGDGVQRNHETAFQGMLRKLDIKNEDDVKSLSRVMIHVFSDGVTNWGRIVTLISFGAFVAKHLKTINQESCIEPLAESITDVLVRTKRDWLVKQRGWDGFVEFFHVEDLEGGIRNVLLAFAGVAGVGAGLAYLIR

The first experiment concerns the target Mcl-1 protein (UniProtKB Q07820) (Homo sapiens, UniProt Q07820). Kind of experiment: Inhibition of Mcl-1 by the fluorescence polarisation technique. In kind it is binding. The following applies: fluorescein labelled ligand 1 nM, Mcl-1 protein 5 nM, ~2 hours at room temperature; read-out: IC50 (μM) Mcl-1 FP. How it is done: The relative binding potency of each compound was determined via Fluorescence Polarisation (FP). The method utilised a Fluorescein labelled ligand (Fluorescein-βAla-Ahx-A-REIGAQLRRMADDLNAQY-OH; mw 2,765) which binds to the Mcl-1 protein (such that Mcl-1 corresponds to the UniProtKB® primary accession number: Q07820) leading to an increased anisotropy measured in milli-polarisation (mP) units using a reader. The addition of a compound which binds competitively to the same site as the ligand will result in a greater proportion of unbound ligand in the system indicated by a decrease in mP units.
An 11 point serial dilution of each compound was prepared in DMSO and 2 μl transferred into flat bottomed, low binding, 384-well plate (final DMSO concentration 5%). 38 μl of buffer (10 mM 4-(2-hydroxyethyl)-1-piperazineethanesulfonic acid [HEPES], 150 mM NaCl, 0.05% Tween 20, pH 7.4), containing the Fluorescein labelled ligand (final concentration 1 nM) and Mcl-1 protein (final concentration 5 nM) was then added.
Assay plates were incubated ˜2 hours at room temperature before FP was measured on a […] Synergy2 reader (Ex. 528 nm, Em. 640 nm, Cut off 510 nm) and mP units calculated. The binding of increasing doses of test compound was expressed as a percentage reduction in mP compared to a window established between ‘5% DMSO only’ and ‘100% inhibition’ controls. 11-point dose response curves were plotted with XL-Fit software using a 4-Parameter Logistic Model (Sigmoidal Dose-Response Model) and the inhibitory concentrations that gave a 50% reduction in mP (IC50) were determined.
As a reminder, the IC50 is the concentration that gives 50% inhibition. With `COC(=O)OC(C)OC(=O)C(Cc1ccccc1OCc1ccnc(-c2ccccc2OC)n1)Oc1ncnc2sc(-c3ccc(F)cc3)c(-c3ccc(OCCN4CCN(C)CC4)c(Cl)c3C)c12` [Example 1, 1-[(methoxycarbonyl)oxy]ethyl (2R)-2-{[(5Sa)-5-{3-chloro-2-methyl-4-[2-(4-methylpiperazin-1-yl)ethoxy]phenyl}-6-(4-fluorophenyl)thieno[2,3-d]pyrimidin-4-yl]oxy}-3-(2-{[2-(2-methoxyphenyl)pyrimidin-4-yl]methoxy}phenyl)propanoate], the IC50 was 0.037 µM.
Turning to `CCOC(=O)OC(C)OC(=O)C(Cc1ccccc1OCc1ccnc(-c2ccccc2OC)n1)Oc1ncnc2sc(-c3ccc(F)cc3)c(-c3ccc(OCCN4CCN(C)CC4)c(Cl)c3C)c12` [Example 2, 1-[(ethoxycarbonyl)oxy]ethyl (2R)-2-{[(5Sa)-5-{3-chloro-2-methyl-4-[2-(4-methylpiperazin-1-yl)ethoxy]phenyl}-6-(4-fluorophenyl)thieno[2,3-d]pyrimidin-4-yl]oxy}-3-(2-{[2-(2-methoxyphenyl)pyrimidin-4-yl]methoxy}phenyl)propanoate], the half-maximal inhibitory concentration (IC50) amounted to 0.361 µM.
For the compound `COc1ccccc1-c1nccc(COc2ccccc2CC(Oc2ncnc3sc(-c4ccc(F)cc4)c(-c4ccc(OCCN5CCN(C)CC5)c(Cl)c4C)c23)C(=O)OC(C)OC(=O)OC(C)C)n1` [Example 3, 1-{[(propan-2-yloxy)carbonyl]oxy}ethyl (2R)-2-{[(5Sa)-5-{3-chloro-2-methyl-4-[2-(4-methylpiperazin-1-yl)ethoxy]phenyl}-6-(4-fluorophenyl)thieno[2,3-d]pyrimidin-4-yl]oxy}-3-(2-{[2-(2-methoxyphenyl)pyrimidin-4-yl]methoxy}phenyl)propanoate], the IC50 was 0.292 µM.
The same measure, in the same setting: to `COc1ccccc1-c1nccc(COc2ccccc2CC(Oc2ncnc3sc(-c4ccc(F)cc4)c(-c4ccc(OCCN5CCN(C)CC5)c(Cl)c4C)c23)C(=O)OC(C)OC(=O)OC(C)(C)C)n1` [Example 4, 1-[(tert-butoxycarbonyl)oxy]ethyl (2R)-2-{[(5Sa)-5-{3-chloro-2-methyl-4-[2-(4-methylpiperazin-1-yl)ethoxy]phenyl}-6-(4-fluorophenyl)thieno[2,3-d]pyrimidin-4-yl]oxy}-3-(2-{[2-(2-methoxyphenyl)pyrimidin-4-yl]methoxy}phenyl)propanoate] belongs 0.959 µM.
Take `COc1ccccc1-c1nccc(COc2ccccc2CC(Oc2ncnc3sc(-c4ccc(F)cc4)c(-c4ccc(OCCN5CCN(C)CC5)c(Cl)c4C)c23)C(=O)OC(C)OC(=O)OC2CCCC2)n1` [Example 5, 1-{[(cyclopentyloxy)carbonyl]oxy}ethyl (2R)-2-{[(5Sa)-5-{3-chloro-2-methyl-4-[2-(4-methylpiperazin-1-yl)ethoxy]phenyl}-6-(4-fluorophenyl)thieno[2,3-d]pyrimidin-4-yl]oxy}-3-(2-{[2-(2-methoxyphenyl)pyrimidin-4-yl]methoxy}phenyl)propanoate]: the 50% inhibitory concentration (IC50) amounted to 0.37 µM.
Same read-out and setting: to `CCCCCCCCOC(=O)OC(C)OC(=O)C(Cc1ccccc1OCc1ccnc(-c2ccccc2OC)n1)Oc1ncnc2sc(-c3ccc(F)cc3)c(-c3ccc(OCCN4CCN(C)CC4)c(Cl)c3C)c12` [Example 6, 1-{[(octyloxy)carbonyl]oxy}ethyl (2R)-2-{[(5Sa)-5-{3-chloro-2-methyl-4-[2-(4-methylpiperazin-1-yl)ethoxy]phenyl}-6-(4-fluorophenyl)thieno[2,3-d]pyrimidin-4-yl]oxy}-3-(2-{[2-(2-methoxyphenyl)pyrimidin-4-yl]methoxy}phenyl)propanoate] belongs 0.51 µM; to `COc1ccccc1-c1nccc(COc2ccccc2CC(Oc2ncnc3sc(-c4ccc(F)cc4)c(-c4ccc(OCCN5CCN(C)CC5)c(Cl)c4C)c23)C(=O)OC(C)OC(=O)N(C)C)n1` [Example 7, 1-[(dimethylcarbamoyl)oxy]ethyl (2R)-2-{[(5Sa)-5-{3-chloro-2-methyl-4-[2-(4-methylpiperazin-1-yl)ethoxy]phenyl}-6-(4-fluorophenyl)thieno[2,3-d]pyrimidin-4-yl]oxy}-3-(2-{[2-(2-methoxyphenyl)pyrimidin-4-yl]methoxy}phenyl)propanoate], 0.438 µM.
Still for that read-out and setting: to `CCN(CC)C(=O)OC(C)OC(=O)C(Cc1ccccc1OCc1ccnc(-c2ccccc2OC)n1)Oc1ncnc2sc(-c3ccc(F)cc3)c(-c3ccc(OCCN4CCN(C)CC4)c(Cl)c3C)c12` [Example 8, 1-[(diethylcarbamoyl)oxy]ethyl (2R)-2-{[(5Sa)-5-{3-chloro-2-methyl-4-[2-(4-methylpiperazin-1-yl)ethoxy]phenyl}-6-(4-fluorophenyl)thieno[2,3-d]pyrimidin-4-yl]oxy}-3-(2-{[2-(2-methoxyphenyl)pyrimidin-4-yl]methoxy}phenyl)propanoate] belongs 1.41 µM; to `COc1ccccc1-c1nccc(COc2ccccc2CC(Oc2ncnc3sc(-c4ccc(F)cc4)c(-c4ccc(OCCN5CCN(C)CC5)c(Cl)c4C)c23)C(=O)OC(C)OC(=O)N2CCOCC2)n1` [Example 9, 1-{[(2R)-2-{[(5Sa)-5-{3-chloro-2-methyl-4-[2-(4-methylpiperazin-1-yl)ethoxy]phenyl}-6-(4-fluorophenyl)thieno[2,3-d]pyrimidin-4-yl]oxy}-3-(2-{[2-(2-methoxyphenyl)pyrimidin-4-yl]methoxy}phenyl)propanoyl]oxy}ethyl morpholine-4-carboxylate], 0.52 µM; to `COCCNC(=O)OC(C)OC(=O)C(Cc1ccccc1OCc1ccnc(-c2ccccc2OC)n1)Oc1ncnc2sc(-c3ccc(F)cc3)c(-c3ccc(OCCN4CCN(C)CC4)c(Cl)c3C)c12` [Example 10, 1-{[(2-methoxyethyl)carbamoyl]oxy}ethyl (2R)-2-{[(5Sa)-5-{3-chloro-2-methyl-4-[2-(4-methylpiperazin-1-yl)ethoxy]phenyl}-6-(4-fluorophenyl)thieno[2,3-d]pyrimidin-4-yl]oxy}-3-(2-{[2-(2-methoxyphenyl)pyrimidin-4-yl]methoxy}phenyl) propanoate], 0.147 µM.
Still for that read-out and setting: for `COCCN(CCOC)C(=O)OC(C)OC(=O)C(Cc1ccccc1OCc1ccnc(-c2ccccc2OC)n1)Oc1ncnc2sc(-c3ccc(F)cc3)c(-c3ccc(OCCN4CCN(C)CC4)c(Cl)c3C)c12` [Example 11, 1-{[bis(2-methoxyethyl)carbamoyl]oxy}ethyl (2R)-2-{[(5Sa)-5-{3-chloro-2-methyl-4-[2-(4-methylpiperazin-1-yl)ethoxy]phenyl}-6-(4-fluorophenyl)thieno[2,3-d]pyrimidin-4-yl]oxy}-3-(2-{[2-(2-methoxyphenyl)pyrimidin-4-yl]methoxy}phenyl)propanoate] the value was 0.551 µM; for `COC(=O)CN(C)C(=O)OC(C)OC(=O)C(Cc1ccccc1OCc1ccnc(-c2ccccc2OC)n1)Oc1ncnc2sc(-c3ccc(F)cc3)c(-c3ccc(OCCN4CCN(C)CC4)c(Cl)c3C)c12` [Example 12, 1-{[(2-methoxy-2-oxoethyl)(methyl)carbamoyl]oxy}ethyl (2R)-2-{[(5Sa)-5-{3-chloro-2-methyl-4-[2-(4-methylpiperazin-1-yl)ethoxy]phenyl}-6-(4-fluorophenyl)thieno[2,3-d]pyrimidin-4-yl]oxy}-3-(2-{[2-(2-methoxyphenyl)pyrimidin-4-yl]methoxy}phenyl)propanoate], 0.318 µM; for `COc1ccccc1-c1nccc(COc2ccccc2CC(Oc2ncnc3sc(-c4ccc(F)cc4)c(-c4ccc(OCCN5CCN(C)CC5)c(Cl)c4C)c23)C(=O)OCOP(=O)(O)O)n1` [Example 13, (phosphonooxy)methyl (2R)-2-{[(5Sa)-5-{3-chloro-2-methyl-4-[2-(4-methylpiperazin-1-yl)ethoxy]phenyl}-6-(4-fluorophenyl)thieno[2,3-d]pyrimidin-4-yl]oxy}-3-(2-{[2-(2-methoxyphenyl)pyrimidin-4-yl]methoxy}phenyl)propanoate], 0.0032 µM.
Turning to `CCOC(=O)OC(C)OC(=O)[C@@H](Cc1ccccc1OCc1ccnc(-c2ccccc2OC)n1)Oc1ncnc2sc(-c3ccc(F)cc3)c(-c3c(C)c(Cl)c(OCCN4CCN(C)CC4)c(Cl)c3C)c12` (stereo partly drawn) [Example 15, 1-[(ethoxycarbonyl)oxy]ethyl (2R)-2-{[5-{3,5-dichloro-2,6-dimethyl-4-[2-(4-methylpiperazin-1-yl)ethoxy]phenyl}-6-(4-fluorophenyl)thieno[2,3-d]pyrimidin-4-yl]oxy}-3-(2-{[2-(2-methoxyphenyl)pyrimidin-4-yl]methoxy}phenyl)propanoate], the IC50 is 0.453 µM.

Another experiment has as its system H929 multiple myeloma tumour line. Kind of experiment: In vitro cytotoxicity (MTT, Microculture Tetrazolium Assay). In kind it is cell-based. The note with it: Homo sapiens, NCI-H929; H929 cells, 48 hours exposure, cell viability. The procedure: The cytotoxicity studies were carried out on the H929 multiple myeloma tumour line.
The cells are distributed onto microplates and exposed to the test compounds for 48 hours.
The cell viability is then quantified by a colorimetric assay, the Microculture Tetrazolium Assay (Cancer Res., 1987, 47, 939-942).
Regarding `CCOC(=O)OC(C)OC(=O)[C@@H](Cc1ccccc1OCc1ccnc(-c2ccccc2OC)n1)Oc1ncnc2sc(-c3ccc(F)cc3)c(-c3c(C)c(Cl)c(OCCN4CCN(C)CC4)c(Cl)c3C)c12` (stereo partly drawn) [Example 15, 1-[(ethoxycarbonyl)oxy]ethyl (2R)-2-{[5-{3,5-dichloro-2,6-dimethyl-4-[2-(4-methylpiperazin-1-yl)ethoxy]phenyl}-6-(4-fluorophenyl)thieno[2,3-d]pyrimidin-4-yl]oxy}-3-(2-{[2-(2-methoxyphenyl)pyrimidin-4-yl]methoxy}phenyl)propanoate], the IC50 stood at 0.068 µM.
